Data taken from patent US20260285850A1, “SUBSTITUTED OXAZOLIDINONES AND IMIDAZOLINONES AS HERBICIDES” (FMC CORPORATION, priority 2023, published 2026).

Assays:
Format in all cases: in vivo
[1] = tested on: palmer (palmer amaranth, palmer pigweed, Amaranthus palmeri); test: Test A postemergence application, visual injury rating 0-100
How it was run: (§1)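 Compounds formulated in a non-phytotoxic solvent with surfactant are sprayed onto soil of freshly planted loam-sand pots ahead of emergence, or onto emerged plants 2-10 cm tall. After a 10-day greenhouse period, each species is scored visually for injury against untreated controls.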

[2] = tested on: kochia (Bassia scoparia); test: as above
How it was run: as §1

[3] = tested on: blackgrass (Alopecurus myosuroides); test: as above
How it was run: as §1

[4] = tested on: green foxtail (Setaria viridis); test: as above
How it was run: as §1

[5] = tested on: ryegrass, Italian (italian ryegrass, Lolium multiflorum); test: as above
How it was run: as §1

[6] = tested on: oat, wild (wild oat, Avena fatua); test: as above
How it was run: as §1

[7] = tested on: horseweed (Erigeron canadensis); test: as above; conditions: Postemergence, 16 g ai/ha, greenhouse 10 days; 0 no effect, 100 complete control
How it was run: as §1

[8] = tested on: soybean (Glycine max); test: as above
How it was run: as §1

[9] = tested on: wheat (Triticum aestivum); test: as above
How it was run: as §1

[10] = tested on: corn (Zea mays); test: as above
How it was run: as §1

[11] = tested on: barnyardgrass (Echinochloa crus-galli); test: as above
How it was run: as §1

[12] = tested on: ragweed (common ragweed, Ambrosia artemisiifolia); test: as above
How it was run: as §1

[13] = tested on: sedge, umbrella (small-flower umbrella sedge, Cyperus difformis); test: Test B flooded paddy test, visual plant response rating 0-100; conditions: 250 g ai/ha, Flood, applied to paddy water, evaluated after 13 days
How it was run: (§2)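 Compounds applied to standing paddy water (3 cm above soil, maintained for the test duration) on 2-leaf-stage plants; visual rating vs controls at 13 days, greenhouse.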

[14] = tested on: barnyardgrass (Echinochloa crusgalli); test: as above; conditions: 250 g ai/ha, Flood, applied to paddy water, evaluated after 13 days
How it was run: as §2

[15] = tested on: rice (Oryza sativa); test: as above; conditions: 250 g ai/ha, Flood, applied to paddy water, evaluated after 13 days
How it was run: as §2

[16] = tested on: ducksalad (Heteranthera limosa); test: as above; conditions: 250 g ai/ha, Flood, applied to paddy water, evaluated after 13 days
How it was run: as §2

[17] = tested on: palmer (palmer amaranth, palmer pigweed, Amaranthus palmeri); test: Test A preemergence soil spray, visual injury rating 0-100; conditions: 10 days
How it was run: as §1

[18] = tested on: kochia (Bassia scoparia); test: as above; conditions: 10 days
How it was run: as §1

[19] = tested on: blackgrass (Alopecurus myosuroides); test: as above; conditions: 10 days
How it was run: as §1

[20] = tested on: green foxtail (Setaria viridis); test: as above; conditions: 10 days
How it was run: as §1

[21] = tested on: ryegrass, Italian (italian ryegrass, Lolium multiflorum); test: as above; conditions: 10 days
How it was run: as §1

[22] = tested on: oat, wild (wild oat, Avena fatua); test: as above; conditions: 10 days
How it was run: as §1

[23] = tested on: soybean (Glycine max); test: as above; conditions: 10 days
How it was run: as §1

[24] = tested on: wheat (Triticum aestivum); test: as above; conditions: 10 days
How it was run: as §1

[25] = tested on: corn (Zea mays); test: as above; conditions: 10 days
How it was run: as §1

[26] = tested on: barnyardgrass (Echinochloa crus-galli); test: as above; conditions: 10 days
How it was run: as §1

[27] = tested on: ragweed (common ragweed, Ambrosia artemisiifolia); test: as above; conditions: 10 days
How it was run: as §1

[28] = 62 g ai/ha, postemergence, 10 days, 0 = no effect, 100 = complete control
[29] = Postemergence, 16 g ai/ha, greenhouse 10 days, 0 no effect, 100 complete control
[30] = 62 g ai/ha, 0 = no effect, 100 = complete control

## CCOC(=O)C1=CCC(NC(=O)C2(C)CN(c3cc(Cl)cc(Cl)c3)C(=O)O2)C1 (stereo not shown) [Compound 113]
[1]; [28]
  Pigweed, Palmer plant response rating (0-100): 10
[1]; [29]
  Pigweed, Palmer plant response rating (0 to 100 scale): 0
[2]; [28]
  Kochia plant response rating (0-100): 0
[2]; [29]
  Kochia plant response rating (0 to 100 scale): 0
[3]; [28]
  Blackgrass plant response rating (0-100): 20
[3]; [29]
  Blackgrass plant response rating (0 to 100 scale): 0
[4]; [28]
  Foxtail, Green plant response rating (0-100): 20
[4]; [29]
  Foxtail, Green plant response rating (0 to 100 scale): 0
[5]; [28]
  Ryegrass, Italian plant response rating (0-100): 0
[5]; [29]
  Ryegrass, Italian plant response rating (0 to 100 scale): 0
[6]; [28]
  Oat, Wild plant response rating (0-100): 0
[6]; [29]
  Oat, Wild plant response rating (0 to 100 scale): 0
[7]
  Horseweed plant response rating (0 to 100 scale): 0
[8]; [28]
  Soybean plant response rating (0-100): 0
[8]; [29]
  Soybean plant response rating (0 to 100 scale): 0
[9]; [28]
  Wheat plant response rating (0-100): 0
[9]; [29]
  Wheat plant response rating (0 to 100 scale): 0
[10]; [28]
  Corn plant response rating (0-100): 20
[10]; [29]
  Corn plant response rating (0 to 100 scale): 0
[11]; [28]
  Barnyardgrass plant response rating (0-100): 10
[11]; [29]
  Barnyardgrass plant response rating (0 to 100 scale): 0
[12]; [28]
  Ragweed plant response rating (0-100): 30
[12]; [29]
  Ragweed plant response rating (0 to 100 scale): 0
[13]
  Plant response rating, Sedge, Umbrella (0 to 100 scale, 0 is no effect and 100 is complete control): 0
[14]
  Plant response rating, Barnyardgrass (0 to 100 scale, 0 is no effect and 100 is complete control): 0
[15]
  Plant response rating, Rice (0 to 100 scale, 0 is no effect and 100 is complete control): 0
[16]
  Plant response rating, Ducksalad (0 to 100 scale, 0 is no effect and 100 is complete control): 0
[17]; 16 g ai/ha, 0 to 100 scale
  Pigweed, Palmer plant response rating: 0
[17]; [30]
  Pigweed, Palmer plant response rating (0-100): 20
[18]; 16 g ai/ha, 0 to 100 scale
  Kochia plant response rating: 0
[18]; [30]
  Kochia plant response rating (0-100): 0
[19]; 16 g ai/ha, 0 to 100 scale
  Blackgrass plant response rating: 0
[19]; [30]
  Blackgrass plant response rating (0-100): 0
[20]; 16 g ai/ha, 0 to 100 scale
  Foxtail, Green plant response rating: 0
[20]; [30]
  Foxtail, Green plant response rating (0-100): 0
[21]; 16 g ai/ha, 0 to 100 scale
  Ryegrass, Italian plant response rating: 0
[21]; [30]
  Ryegrass, Italian plant response rating (0-100): 0
[22]; 16 g ai/ha, 0 to 100 scale
  Oat, Wild plant response rating: 0
[22]; [30]
  Oat, Wild plant response rating (0-100): 0
[23]; 16 g ai/ha, 0 to 100 scale
  Soybean plant response rating: 0
[23]; [30]
  Soybean plant response rating (0-100): 0
[24]; 16 g ai/ha, 0 to 100 scale
  Wheat plant response rating: 0
[24]; [30]
  Wheat plant response rating (0-100): 0
[25]; 16 g ai/ha, 0 to 100 scale
  Corn plant response rating: 0
[25]; [30]
  Corn plant response rating (0-100): 0
[26]; 16 g ai/ha, 0 to 100 scale
  Barnyardgrass plant response rating: 0
[26]; [30]
  Barnyardgrass plant response rating (0-100): 0
[27]; 16 g ai/ha, 0 to 100 scale
  Ragweed plant response rating: 0
[27]; [30]
  Ragweed plant response rating (0-100): 0
